In the supplement of paper PMC10307832 one finds relative viability data, which are given here for one cell line.

What all share (assay): relative viability (nuclei count vs DMSO), 5 days (fraction); higher = more cells survive
Compound in assay [1]: O=C(O)C(Cc1ccccc1[N+](=O)[O-])=NNc1nc(-c2ccc(Cl)c(Cl)c2)cs1 (mixture of isomers) [4EGI-1] + O=C(c1cc(Cc2n[nH]c(=O)c3ccccc23)ccc1F)N1CCN(C(=O)C2CC2)CC1 [Olaparib] (partner 8 µM)
In short, it runs like this: (§1)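 Relative viability is defined as nuclei in treated wells over nuclei in vehicle wells. Duplicate plates were run and medians reported. Lung cancer cell lines in 1536-well plates were dosed by pin tool one day after seeding, with one drug or with a fixed anchor-drug dose plus five library-drug doses (not always all listed) in √10 steps, and nuclei were counted after 5 days.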

Compound in assay [2]: O=C(O)C(Cc1ccccc1[N+](=O)[O-])=NNc1nc(-c2ccc(Cl)c(Cl)c2)cs1 (mixture of isomers) [4EGI-1] + CC(=O)c1c(C)c2cnc(Nc3ccc(N4CCNCC4)cn3)nc2n(C2CCCC2)c1=O [Palbociclib] (partner 0.5 µM)
The gist of the method:
as §1

Compound in assay [3]: CN1CCN(CC1)C2=CC(=C(C=C2)NC3=NC=C4C(=N3)N(C5=CC=CC=C5C(=O)N4C)C)OC [XMD8-85] + Cc1nc(NC(=O)N2CCC[C@H]2C(N)=O)sc1-c1ccnc(C(C)(C)C(F)(F)F)c1 [Alpelisib] (partner 2 µM)
In short, it runs like this:
as §1

Compound in assay [4]: CN1CCN(CC1)C2=CC(=C(C=C2)NC3=NC=C4C(=N3)N(C5=CC=CC=C5C(=O)N4C)C)OC [XMD8-85] + CC(=O)Nc1cccc(-n2c(=O)n(C3CC3)c(=O)c3c(Nc4ccc(I)cc4F)n(C)c(=O)c(C)c32)c1 [Trametinib] (partner 0.02 µM)
In short, it runs like this:
as §1

Turning to NCI-H1792, the relative viability in assay [1] (first compound 0.5 µM) turned out to be 0.412; in assay [1] (first compound 1.581 µM), 0.496; in assay [1] (first compound 5 µM), 0.359; in assay [1] (first compound 15.81 µM), 0.36; in assay [1] (first compound 50 µM), 0.165; in assay [2] (first compound 0.5 µM), 0.75. For the same cell line, the relative viability in assay [2] (first compound 1.581 µM) is 0.695; in assay [2] (first compound 5 µM), 0.723; in assay [2] (first compound 15.81 µM), 0.575; in assay [2] (first compound 50 µM), 0.646; in assay [3] (first compound 0.08 µM) it was 0.627; in assay [3] (first compound 0.253 µM), 0.642. In addition, the relative viability was 0.562 in assay [3] (first compound 2.53 µM); 0.723 in assay [3] (first compound 8 µM); 0.483 in assay [4] (first compound 0.253 µM); 0.308 in assay [4] (first compound 0.8 µM); 0.463 in assay [4] (first compound 2.53 µM); 0.271 in assay [4] (first compound 8 µM).
